Test results: patent US4191780A, “Bromhexine derivatives and process for making same” (priority 1978, dated 1980)
Entries after “also recorded” stand apart in the source; their conditions may differ.

Legend:
[1] = system: Cough elicited by 15% citric acid spray; experiment: Antitussive activity in Guinea-pigs, citric acid spray cough; format: in vivo; conditions: Cavia porcellus, ip, 0.5 h, intraperitoneal, 30 min. after application, confidence limits P = 0.05
Description: (§1) (6) Antitussive effect in Guinea-pigs and mice
(§2) Cough is elicited by 15% citric acid spray in both species, according to the method by Harsany et al. (Boll. Chim. Farm. 112, 691, 1973). The effect was tested 1 hour after oral administration and 30 min. after intraperitoneal application of the antitussive agents on mice and Guinea-pigs respectively.
(§3) ED50 values of the drugs are computed by the method of Litchfield and Wilcoxon (Litchfield, J. T. Jr., and Wilcoxon F., J. Pharmacol. exp. Ther. 96,99--1949).

[2] = system: Pain induced by a chemical stimulus; experiment: Siegmund Test: pain induced by a chemical stimulus (acetic acid writhing); format: in vivo, mice; conditions: mouse, 300 mg/kg oral
Description: (§4) Two test methods are used for establishing the action of Bromhexine and IFT 1026 on noci-ceptive stimuli in mice.
(§5) (a) Pain induced by a chemical stimulus according to the method of Siegmund (Siegmund E., Cadmier, R., and Lu, G. Proc. Soc. exp. Biol. N.Y. 95, 729--1957). The mice distributed at random into groups of 10 animals, are deprived of solid food for the 18-hour period prior to the test. […] Thirty minutes after treatment the mice are injected i.p. with 0.1 ml/10 g of a 1.5% acetic acid solution. The writhing is recorded for a 20 min. period following this i.p. injection.

[3] = Long-term toxicity in rats: hematological parameters; format: in vivo, rat; conditions: daily oral Bromhexine 250 mg/kg, IFT 1026 350 mg/kg
Description: The hematological and biochemical values relating to the groups under treament with the above reported doses are shown in Tables Nos. 4 and 5. These values are virtually the same for both treated and control animals.
Effect of daily oral administration of Bromhexine 250 mg/kg
and IFT 1026 350 mg/kg on the hematological parameters in […]

[4] = system: Cough elicited by 15% citric acid spray; experiment: Antitussive activity in mice, citric acid spray cough; format: in vivo; conditions: Mus musculus, oral, 1 hour after administration, confidence limits P = 0.05
Description: as §1, §2, §3

[5] = system: Pain induced by a physical stimulation; experiment: Hot-plate Test (Eddy and Leimbach): pain induced by a physical stimulation; format: in vivo, mice; conditions: mouse, 300 mg/kg oral, plate at 57° C.
Description: as §4
(§6) (b) Pain induced by a physical stimulation according to the hot-plate test technique by Eddy and Leimbach (Eddy, N. B. and Leimbach, O., J. Pharmacol. exp.Ther. 107, 383--1953). The temperature of the plate was kept at 57° C. Groups of 12 mice are treated as described under (a) above. The reaction times are measured 15 min. before treatment (Ro) and 4 times after the administration (every 15 min). Only the maximal response is taken into account (Rmax).

[6] = Long-term toxicity in rats: organ weights at necropsy; format: in vivo; conditions: fresh weight, daily oral 250 mg/kg Bromhexine, 350 mg/kg IFT 1026
Description: Effect of daily oral administration of 250 mg/kg Bromhexine and 350 mg/kg
organ weights of rats, expressed as grams of fresh weight.

[7] = Long-term toxicity in rats: mortality, pathology and general state
Description: Long-term toxicity (16 weeks) of IFT 1026 is tested in comparison to the parent compound (Bromhexine).

[8] = Eight-day toxicity studies in mice, lethality (i.p.); format: in vivo; conditions: for Total number of deaths: 8 days
Excerpt: Eight-day toxicity studies of IFT 1026 and Bromhexine in mice.

[9] = Long-term toxicity in rats (16 weeks): mean body weight; format: in vivo
Excerpt: Effect of daily oral administration of various doses of
IFT 1026 and Bromhexine on mean body weight of rats.

[10] = Long-term toxicity in rats: biochemical parameters; format: in vivo, rat; conditions: daily oral 250 mg/kg Bromhexine, 350 mg/kg IFT 1026
[11] = Bromsulphtalein (BSP) clearance in rats treated with the lower dose; format: in vivo; conditions: 30 min after 50 mg/kg BSP i.v., lower dose of drug
Description: The possibility to use BSP for the diagnosis of lesions in liver parenchyma is well known. Bromsulphtalein (BSP) clearance was made according to Carpi and Parenti (Carpi, C. and M. A. Parenti, Il Farmaco, Ed. Pr. vol. 17, page 45, 1962). Thirty minutes after the i.v. administration of 50 mg/kg BSP to control rats, the mean plasma level of the dyestuff is 80±12 mcg/ml.
% of rate showing BSP plasma levels greater than 80 mcg/ml
(control values) and 160 mcg/ml (two-fold control values)

[12] = system: noci-ceptive stimuli; experiment: Study of analgesic action on mice (both tests); format: in vivo; conditions: 300 mg/kg oral
Description: as §4, §5, §6

COc1ccccc1OCC(=O)Nc1c(Br)cc(Br)cc1CN(C)C1CCCCC1 [IFT 1026, N-(2-guaiacol-glycolyl-amino-3,5-dibromobenzyl)N-cyclohexylmethylamine]
ED50 [1]: 189 mg/kg | Siegmund Test, number of writhings for a 20 min. period, mean ± SE [2]: 34 ± 3 | RBC, mean ± SE ([3]; females): 817 ± 58 10^6 /ml | WBC, mean ± SE ([3]; females): 179 ± 26 10^2 /ml | RBC, mean ± SE ([3]; males): 657 ± 60 10^6 /ml | WBC, mean ± SE ([3]; males): 140 ± 10 10^2 /ml | ED50 [4]: 298 mg/kg | Hot-plate Test (R max/Ro), mean ± SE [5]: 1.62 ± 0.26 | organ weight, Adrenal glands ([6]; females): 4.6 ± 0.1 10^-2 grams | organ weight, Brain ([6]; females): 19.4 ± 1 10^-1 grams | organ weight, Heart ([6]; females): 7.3 ± 0.8 10^-1 grams | organ weight, Kidneys ([6]; females): 18.2 ± 0.4 10^-1 grams | organ weight, Liver ([6]; females): 10.1 ± 0.3 grams | organ weight, Lungs ([6]; females): 14.2 ± 1.1 10^-1 grams | organ weight, Spleen ([6]; females): 6.5 ± 0.2 10^-1 grams | organ weight, Adrenal glands ([6]; males): 3.7 ± 0.5 10^-2 grams | organ weight, Brain ([6]; males): 13.4 ± 0.4 10^-1 grams | organ weight, Heart ([6]; males): 7.1 ± 0.4 10^-1 grams | organ weight, Kidneys ([6]; males): 18.3 ± 0.4 10^-1 grams | organ weight, Liver ([6]; males): 9.7 ± 0.9 grams | organ weight, Lungs ([6]; males): 9.1 ± 0.8 10^-1 grams | organ weight, Spleen ([6]; males): 6.3 ± 0.3 10^-1 grams | animals that died during the study ([7]; rat, in vivo): 2 animals | changes in general state of health, behaviour, body weight, blood and viscera ([7]; rat, in vivo): no significant changes | long-term toxicity in the rats ([7]; rat, in vivo): weak | toxicity compared with Bromhexine (parent compound) ([7]; rats, subacute and long-term administration): less toxic than Bromhexine; also recorded: less toxic than the parent compound | Number of deaths at day 3 ([8]; daily dose 450 mg/k): 1 | Total number of deaths ([8]; daily dose 450 mg/k): 1/10 | Number of deaths at day 2 ([8]; daily dose 900 mg/k): 1 | Total number of deaths ([8]; daily dose 900 mg/k): 1/10 | body weight, mean ± SE ([9]; females, 70 mg/kg daily oral, 0 days): 125 ± 6 g | body weight, mean ± SE ([9]; females, 70 mg/kg daily oral, 21 days): 181 ± 5 g | body weight, mean ± SE ([9]; females, 70 mg/kg daily oral, 45 days): 218 ± 2 g | body weight, mean ± SE ([9]; females, 70 mg/kg daily oral, 60 days): 242 ± 2 g | body weight, mean ± SE ([9]; females, 350 mg/kg daily oral, 0 days): 118 ± 2 g | body weight, mean ± SE ([9]; females, 350 mg/kg daily oral, 21 days): 179 ± 5 g | body weight, mean ± SE ([9]; females, 350 mg/kg daily oral, 45 days): 225 ± 7 g | body weight, mean ± SE ([9]; females, 350 mg/kg daily oral, 60 days): 232 ± 10 g | body weight, mean ± SE ([9]; females, 1400 mg/kg daily oral, 0 days): 122 ± 5 g | body weight, mean ± SE ([9]; females, 1400 mg/kg daily oral, 21 days): 173 ± 7 g | body weight, mean ± SE ([9]; females, 1400 mg/kg daily oral, 45 days): 211 ± 5 g | body weight, mean ± SE ([9]; females, 1400 mg/kg daily oral, 60 days): 221 ± 8 g | body weight, mean ± SE ([9]; males, 70 mg/kg daily oral, 0 days): 117 ± 7 g | body weight, mean ± SE ([9]; males, 70 mg/kg daily oral, 21 days): 220 ± 4 g | body weight, mean ± SE ([9]; males, 70 mg/kg daily oral, 45 days): 310 ± 4 g | body weight, mean ± SE ([9]; males, 70 mg/kg daily oral, 60 days): 370 ± 6 g | body weight, mean ± SE ([9]; males, 350 mg/kg daily oral, 0 days): 123 ± 8 g | body weight, mean ± SE ([9]; males, 350 mg/kg daily oral, 21 days): 226 ± 6 g | body weight, mean ± SE ([9]; males, 350 mg/kg daily oral, 45 days): 290 ± 7 g | body weight, mean ± SE ([9]; males, 350 mg/kg daily oral, 60 days): 368 ± 4 g | body weight, mean ± SE ([9]; males, 1400 mg/kg daily oral, 0 days): 121 ± 5 g | body weight, mean ± SE ([9]; males, 1400 mg/kg daily oral, 21 days): 222 ± 7 g | body weight, mean ± SE ([9]; males, 1400 mg/kg daily oral, 45 days): 295 ± 8 g | body weight, mean ± SE ([9]; males, 1400 mg/kg daily oral, 60 days): 365 ± 9 g | variations in the body weights versus control group ([9]; rats, exception: Bromhexine 1000 mg/kg/day): no significant variations | A/G ratio (Albumin/Globulin), mean ± SE ([10]; females): 2.6 ± 0.3 | BUN, mean ± SE ([10]; females): 41.1 ± 2 mg % | GLUCOSE, mean ± SE ([10]; females): 85.9 ± 8 mg % | SGOT, mean ± SE ([10]; females): 25.1 ± 0.3 Units/ml | SGPT, mean ± SE ([10]; females): 13.2 ± 0.4 Units/ml | TOTAL PROTEIN, mean ± SE ([10]; females): 30.6 ± 2.4 mg/mL | A/G ratio (Albumin/Globulin), mean ± SE ([10]; males): 2.2 ± 0.1 | BUN, mean ± SE ([10]; males): 39.9 ± 5 mg % | GLUCOSE, mean ± SE ([10]; males): 73.7 ± 5 mg % | SGOT, mean ± SE ([10]; males): 24.5 ± 0.6 Units/ml | SGPT, mean ± SE ([10]; males): 13.1 ± 0.7 Units/ml | TOTAL PROTEIN, mean ± SE ([10]; males): 28.2 ± 2.1 mg/mL | % showing BSP plasma levels >160 mcg/ml ([11]; X^2 = 0.43, N.S.): 5.5% | rats showing BSP plasma levels >160 mcg/ml, number/tested ([11]; X^2 = 0.43, N.S.): 1/18 | % showing BSP plasma levels >80 mcg/ml ([11]; X^2 = 0.7, N.S.): 28% | rats showing BSP plasma levels >80 mcg/ml, number/tested ([11]; X^2 = 0.7, N.S.): 5/18 | Responses to algogenic stimuli [12]: not suppressed
